Measured values: ChEMBL document CHEMBL1150441
Blank lines part the entries; values can stand above or below the compound they belong to. Activity calls are given as the source filed them. No cut-off for these calls is given here.

Experiments:
[1] = target: T1, Estrogen receptor (Rattus norvegicus) (UniProt P06211+Q62986); assay: Effect on serum cholesterol level as tissue specific estrogen agonist assay in ovariectomized rat model: significant decrease at <=10 mg/kg dose; type: functional, organism-based; conditions: filed as agonist
[2] = target: T1, Estrogen receptor (Rattus norvegicus); assay: Effect on uterine weight as tissue specific estrogen agonist assay in ovariectomized rat model: significant increase at <=10 mg/kg dose; type: functional, organism-based; conditions: filed as agonist
Rattus norvegicus [3] = species: Rattus norvegicus; assay: Effect on serum cholesterol level as tissue specific estrogen agonist assay in ovariectomized rat model: Not significant; type: functional, organism-based
[4] = target: T1, Estrogen receptor (Rattus norvegicus); assay: Effect on serum cholesterol level as tissue specific estrogen agonist assay in ovariectomized rat model: significant decrease at <10 mg/kg dose; type: functional, organism-based; conditions: filed as agonist
MCF7 = assay: Inhibition of MCF-7 cell proliferation stimulated by 10e-12 M estradiol: Not active; type: functional, cell-based; conditions: Homo sapiens
Rattus norvegicus [5] = species: Rattus norvegicus; assay: Effect on uterine weight as tissue specific estrogen agonist assay in ovariectomized rat model: Not significant; type: functional, organism-based
Rattus norvegicus [6] = assay: Effect on uterine weight as tissue specific estrogen agonist assay in ovariectomized rat model at 0.1 mg/kg dose: Not significant; type: functional, organism-based; parameters: dose 0.1 mg/kg

Activity [1]: Agonist | Activity [2]: Agonist
SMILES: CCc1sc2cc(O)ccc2c1Cc1ccc(OCCN2CCCCC2)cc1

SMILES: Oc1ccc2c(C(O)c3ccc(OCCN4CCCCC4)cc3)c(C3CCCC3)sc2c1 (configuration not stated)
Activity (Rattus norvegicus [3]): inactive

Activity [4]: Agonist | Activity [2]: Agonist
SMILES: Oc1ccc2c(Cc3ccc(OCCN4CCCCC4)cc3)c(C3CCCCC3)sc2c1

SMILES: C[C@]12CC[C@@H]3c4ccc(O)cc4CC[C@H]3[C@@H]1CC[C@@H]2O
Dose (MCF7): inactive

SMILES: Cc1sc2cc(O)ccc2c1Cc1ccc(OCCN2CCCCC2)cc1
Activity (Rattus norvegicus [3]): inactive | Activity (Rattus norvegicus [5]): inactive

Activity [1]: Agonist | Activity [2]: Agonist
SMILES: CC(C)c1sc2cc(O)ccc2c1Cc1ccc(OCCN2CCCCC2)cc1

SMILES: O=C(c1ccc(OCCN2CCCCC2)cc1)c1c(C2CCCC2)sc2cc(O)ccc12
Activity (Rattus norvegicus [6]): inactive

SMILES: Oc1ccc2c(Cc3ccc(OCCN4CCCCC4)cc3)c([C@H]3CC[C@H](O)CC3)sc2c1
Activity (Rattus norvegicus [6]): inactive

Activity [1]: Agonist
SMILES: Oc1ccc2c(Cc3ccc(OCCN4CCCCC4)cc3)c(C3CCCC3)sc2c1
Activity (Rattus norvegicus [6]): inactive

SMILES: Cc1sc2cc(O)ccc2c1C(=O)c1ccc(OCCN2CCCCC2)cc1
Activity (Rattus norvegicus [5]): inactive

SMILES: CC(C)c1sc2cc(O)ccc2c1C(=O)c1ccc(OCCN2CCCCC2)cc1
Activity (Rattus norvegicus [6]): inactive

SMILES: CCc1sc2cc(O)ccc2c1C(=O)c1ccc(OCCN2CCCCC2)cc1
Activity (Rattus norvegicus [5]): inactive
